This passage reports IC50 and viability, T/C results from PubChem BioAssay AID2060600 (Molecular Pharmacology Branch, DTP, NCI, 2025).

Molecules are shown by their SMILES. Values joined by “and” are separate entries in the source; they are usually repeats but may differ in a detail not shown here. Equal entries are not always repeated.

This experiment has as its system 996289-038-R-J1-PDC complex spheroid viability. The experiment is described as follows: Anticancer human tumor 996289-038-R-J1-PDC patient-derived colon adenocarcinoma cell line growth inhibition [CLK]. Conditions: for viability, T/C: stronger effect = lower value. In outline: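 Patient-derived tumor cells grown as complex spheroids with HUVEC endothelial cells and mesenchymal stem cells, treated with drug combinations. Concentrations descend in half-log steps from near clinical Cmax, or from 10 microM if Cmax unknown.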

[1] abbreviates: curve of first compound, second compound 0.0316 µM.
The mark [2] stands for this setting: curve of first compound, second compound 0.1 µM.
Where [3] appears, read: curve of first compound, second compound 0.316 µM.
Where [4] appears, read: curve of first compound, second compound 1 µM.
The mark [5] stands for this setting: curve of first compound, second compound 3.16 µM.
Where [6] appears, read: curve of first compound, second compound 10 µM.
The mark [7] stands for this setting: second compound 0.0316 µM, first compound 0.0316 µM.
Where [8] appears, read: second compound 0.0316 µM, first compound 0.1 µM.
[9] abbreviates: second compound 0.0316 µM, first compound 0.316 µM.
Setting [10] is: second compound 0.0316 µM, first compound 1 µM.
[11] abbreviates: second compound 0.0316 µM, first compound 3.16 µM.
Setting [12] is: second compound 0.0316 µM, first compound 10 µM.
Setting [13] is: second compound 0.1 µM, first compound 0.0316 µM.
[14] abbreviates: second compound 0.1 µM, first compound 0.1 µM.
[15] abbreviates: second compound 0.1 µM, first compound 0.316 µM.
Setting [16] is: second compound 0.1 µM, first compound 1 µM.
Setting [17] is: second compound 0.1 µM, first compound 3.16 µM.
[18] abbreviates: second compound 0.1 µM, first compound 10 µM.
Where [19] appears, read: second compound 0.316 µM, first compound 0.0316 µM.
The mark [20] stands for this setting: second compound 0.316 µM, first compound 0.1 µM.
[21] abbreviates: second compound 0.316 µM, first compound 0.316 µM.
The mark [22] stands for this setting: second compound 0.316 µM, first compound 1 µM.
Setting [23] is: second compound 0.316 µM, first compound 3.16 µM.
Setting [24] is: second compound 0.316 µM, first compound 10 µM.
The mark [25] stands for this setting: second compound 1 µM, first compound 0.0316 µM.
Setting [26] is: second compound 1 µM, first compound 0.1 µM.
Where [27] appears, read: second compound 1 µM, first compound 0.316 µM.
The mark [28] stands for this setting: second compound 1 µM, first compound 1 µM.
Setting [29] is: second compound 1 µM, first compound 3.16 µM.
The mark [30] stands for this setting: second compound 1 µM, first compound 10 µM.
Where [31] appears, read: second compound 3.16 µM, first compound 0.0316 µM.
The mark [32] stands for this setting: second compound 3.16 µM, first compound 0.1 µM.
[33] abbreviates: second compound 3.16 µM, first compound 0.316 µM.
[34] abbreviates: second compound 3.16 µM, first compound 1 µM.
Setting [35] is: second compound 3.16 µM, first compound 3.16 µM.
Where [36] appears, read: second compound 3.16 µM, first compound 10 µM.
Where [37] appears, read: second compound 10 µM, first compound 0.0316 µM.
Setting [38] is: second compound 10 µM, first compound 0.1 µM.
Where [39] appears, read: second compound 10 µM, first compound 0.316 µM.
[40] abbreviates: second compound 10 µM, first compound 1 µM.
Where [41] appears, read: second compound 10 µM, first compound 3.16 µM.
Where [42] appears, read: second compound 10 µM, first compound 10 µM.
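Also: spheroids exposed to the agents for 7 days before readout.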

Broadly, the IC50 is the point on the concentration scale where inhibition reaches its midpoint. Broadly, the viability, T/C is the ratio of treated to control. As to `C#Cc1c(F)ccc2cc(O)cc(-c3ncc4c(N5CC6CCC(C5)N6)nc(OCC56CCCN5CC(F)C6)nc4c3F)c12` (centres undefined) + CNC(=O)c1ccc(Nc2nc(OC3CCCC3)c3c(-c4ccc5nc(C)oc5c4)c[nH]c3n2)c(OC)c1, the IC50 is 1.82 µM under setting [1]; 0.503 µM under setting [2]; 0.0991 µM under setting [3]; under 0.0316 µM under setting [4]; under 0.0316 µM under setting [5]; under 0.0316 µM under setting [6]. Moreover, the viability, T/C reads like this: under setting [7], 107%; under setting [8], 93.2%; under setting [9], 71%; under setting [10], 62.4%; under setting [11], 40%; under setting [12], 29.3%. In addition, the viability, T/C under setting [13] is 106%; the viability, T/C under setting [14] is 77.1%; the viability, T/C under setting [15] was 55.9%; the viability, T/C under setting [16] is 42.4%; the viability, T/C under setting [17] was 32.2%; the viability, T/C under setting [18] was 30.5%. Also, the viability, T/C is 60.7% under setting [19]; 50.4% under setting [20]; 35.6% under setting [21]; 28.3% under setting [22]; 25.5% under setting [23]; 22.4% under setting [24]. Moreover, the viability, T/C is, setting by setting: under setting [25], 33.8%; under setting [26], 26.5%; under setting [27], 25.4%; under setting [28], 21.5%; under setting [29], 22.1%; under setting [30], 20.6%. Besides, the viability, T/C is 28.3% under setting [31]; 24.3% under setting [32]; 24.5% under setting [33]; 21.4% under setting [34]; 22.9% under setting [35]; 17.8% under setting [36]. For the same molecule, the viability, T/C by setting is: under setting [37], 28.7%; under setting [38], 23.1%; under setting [39], 20.2%; under setting [40], 22.3%; under setting [41], 22.8%; under setting [42], 17.9%.
Turning to `Nc1ccccc1NC(=O)c1ccc(CNC(=O)OCc2cccnc2)cc1`, the viability, T/C was 88.5% and 105% (compound 0.0316 µM); 89.2% and 81.2% (compound 0.1 µM); 91.8% and 98.1% (compound 0.316 µM); 87.1% and 85% (compound 1 µM); 61.8% and 65.7% (compound 3.16 µM); 42.5% and 44.2% (compound 10 µM). Further, under “curve of compound”, the IC50 was 6.4 µM and 7.34 µM.
On to `CC(CO)NC(=O)c1cc(-c2ccc(Cl)cc2)nn(-c2cnn(C)c2)c1=O` (centres undefined), for which the viability, T/C is 104% and 103% (compound 0.0316 µM); 99.9% and 95.8% (compound 0.1 µM); 94.6% and 96.1% (compound 0.316 µM); 92.1% and 100% (compound 1 µM); 103% and 92.2% (compound 3.16 µM); 88.4% and 88.7% (compound 10 µM). The 50% inhibitory concentration (IC50) (curve of compound) was over 10 µM.
In the case of `CC(Nc1ccc2c(c1)OCCn1cc(N3C(=O)OCC3C(F)F)nc1-2)C(N)=O` (centres undefined) + CN1CCN(c2cc(C(=O)Nc3cc4cc(-c5cnn(C)c5)ccc4cn3)ccn2)CC1, the IC50 is, setting by setting: under setting [1], 3.17 µM; under setting [2], 1.1 µM; under setting [3], 0.158 µM; under setting [4], under 0.0316 µM; under setting [5], under 0.0316 µM; under setting [6], under 0.0316 µM. Besides, the viability, T/C is 88.1% under setting [7]; 84.9% under setting [8]; 71.8% under setting [9]; 60.5% under setting [10]; 52.2% under setting [11]; 37.2% under setting [12]. Moreover, the viability, T/C was 91.5% under setting [13]; 77.3% under setting [14]; 62.1% under setting [15]; 50.6% under setting [16]; 41.6% under setting [17]; 31.2% under setting [18]. Also, the viability, T/C is, setting by setting: under setting [19], 62%; under setting [20], 50.9%; under setting [21], 46%; under setting [22], 35.6%; under setting [23], 35.9%; under setting [24], 21.9%. Also, the viability, T/C is, setting by setting: under setting [25], 2.6%; under setting [26], 2.53%; under setting [27], 2.23%; under setting [28], 1.58%; under setting [29], 1.47%; under setting [30], 1.4%. The viability, T/C reads like this: under setting [31], 3.59%; under setting [32], 0.97%; under setting [33], 1.63%; under setting [34], 1.51%; under setting [35], 1.33%; under setting [36], 1.96%. Moreover, the viability, T/C is 1.51% under setting [37]; 0.78% under setting [38]; 1.23% under setting [39]; 0.65% under setting [40]; 0.6% under setting [41]; 0.47% under setting [42].
Regarding `CC(=O)O[C@H]1C(=O)[C@@]2(C)[C@H]([C@H](OC(=O)c3ccccc3)[C@]3(O)C[C@H](OC(=O)[C@H](O)[C@@H](NC(=O)c4ccccc4)c4ccccc4)C(C)=C1C3(C)C)[C@]1(OC(C)=O)CO[C@@H]1C[C@@H]2O`, the viability, T/C runs as follows: (compound 0.0316 µM) 94.2% and 106%; (compound 0.1 µM) 85.8% and 89.7%; (compound 0.316 µM) 68.7% and 72.4%; (compound 1 µM) 59.8% and 63.7%; (compound 3.16 µM) 58.6% and 73%; (compound 10 µM) 61.5% and 67.2%. In addition, for the setting “curve of compound”, the IC50 was over 10 µM.
For the molecule `CCc1c2c(nc3ccc(O)cc13)-c1cc3c(c(=O)n1C2)COC(=O)[C@]3(O)CC`, the viability, T/C reads like this: (compound 0.00316 µM) 98.9% and 99.3%; (compound 0.01 µM) 81.9% and 72.3%; (compound 0.0316 µM) 60.8% and 61.9%; (compound 0.1 µM) 55.7% and 58.6%; (compound 0.316 µM) 45.8% and 50.8%; (compound 1 µM) 25.7% and 30.8%. The IC50 (curve of compound) is 0.135 µM and 0.165 µM.
Take `Nc1ccccc1NC(=O)c1ccc(CNC(=O)OCc2cccnc2)cc1` + CNC(=O)c1ccc(Nc2nc(OC3CCCC3)c3c(-c4ccc5nc(C)oc5c4)c[nH]c3n2)c(OC)c1: the IC50 was 7.09 µM under setting [1]; 6.91 µM under setting [2]; 4.11 µM under setting [3]; 1.7 µM under setting [4]; 1.88 µM under setting [5]; 1.84 µM under setting [6]. In addition, the viability, T/C is, setting by setting: under setting [7], 118%; under setting [8], 103%; under setting [9], 113%; under setting [10], 91.8%; under setting [11], 70.7%; under setting [12], 41.3%. Moreover, the viability, T/C runs as follows: under setting [13], 118%; under setting [14], 110%; under setting [15], 120%; under setting [16], 97.9%; under setting [17], 71%; under setting [18], 40.2%. Further, the viability, T/C under setting [19] was 85.5%; the viability, T/C under setting [20] was 82.9%; the viability, T/C under setting [21] is 74.3%; the viability, T/C under setting [22] was 75.5%; the viability, T/C under setting [23] was 54%; the viability, T/C under setting [24] was 31.3%. The viability, T/C was 70.6% under setting [25]; 70.7% under setting [26]; 66.7% under setting [27]; 59.9% under setting [28]; 38.8% under setting [29]; 12.5% under setting [30]. Besides, the viability, T/C runs as follows: under setting [31], 63.8%; under setting [32], 66.1%; under setting [33], 63.8%; under setting [34], 62.2%; under setting [35], 40.1%; under setting [36], 8.12%. For the same molecule, the viability, T/C under setting [37] is 60.8%; the viability, T/C under setting [38] is 63.3%; the viability, T/C under setting [39] was 57.2%; the viability, T/C under setting [40] is 62.6%; the viability, T/C under setting [41] is 40.3%; the viability, T/C under setting [42] was 7.43%.
